Laboratory results from publication PMC11935913, “Silk Nanococoons: Bio‐Nanoreactors for Enzymatic Catalytic Reactions and Applications to Alcohol Intoxication” (Small Science, 2021).

Biological target: T1, horseradish peroxidase (HRP) (Armoracia rusticana, UniProt P00433)
T1 construct: gene PRXC1A
T1 sequence (P00433 31-338): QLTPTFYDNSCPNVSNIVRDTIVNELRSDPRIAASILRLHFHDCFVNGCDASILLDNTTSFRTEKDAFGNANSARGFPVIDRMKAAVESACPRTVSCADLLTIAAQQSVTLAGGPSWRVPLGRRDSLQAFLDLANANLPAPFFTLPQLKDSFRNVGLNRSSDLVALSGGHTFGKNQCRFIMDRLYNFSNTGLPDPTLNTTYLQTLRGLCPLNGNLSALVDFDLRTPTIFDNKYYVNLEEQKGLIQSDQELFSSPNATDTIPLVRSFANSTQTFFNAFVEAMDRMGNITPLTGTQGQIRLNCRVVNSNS
Assay: absorbance, plate reader, oxidation by H2O2
Type: biochemical
Details: H2O2 co-substrate

Compound	absorbance, plate reader, oxidation by H2O2 (generated by GOx from glucose)	absorbance, plate reader, oxidation by H2O2 (enzyme in silk fibroin nanospheres)
COc1cc(-c2ccc(N)c(OC)c2)ccc1N [o‐dianisidine]	the ODS or TMB gets oxidized by H2O2 under the catalysis of HRP	
Cc1cc(-c2cc(C)c(N)c(C)c2)cc(C)c1N [3,3′,5,5′‐tetramethylbenzidine]		activity recovery of enzyme HRP in SENs was monitored by the oxidation of TMB
